Measured values as given in patent publication US7157430B2, “(Substituted)acyl dipeptidyl inhibitors of the ICE/CED-3 family of cysteine proteases” (Idun Pharmaceuticals, Inc., priority 1998, dated 2007).
Read-outs that look alike come from different tables or passages of the source. Where a SMILES comes first, the peptide text is derived from it. The star is where a group is joined. Cbz = O=C(OCc1ccccc1)*; CH2F = FC*

How the values were obtained:
Format in all cases: biochemical
CPP32 [1] = target: T1, CPP32 (Homo sapiens, UniProt P42574); test: Fluorescence enzyme assay, IC50 determination, CPP32
T1 sequence (P42574 29-175 limits assumed): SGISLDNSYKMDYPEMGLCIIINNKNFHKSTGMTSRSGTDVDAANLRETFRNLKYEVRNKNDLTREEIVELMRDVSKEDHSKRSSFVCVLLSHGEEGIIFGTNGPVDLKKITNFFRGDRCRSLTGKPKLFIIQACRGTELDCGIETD
T1 sequence (P42574 176-277 limits assumed): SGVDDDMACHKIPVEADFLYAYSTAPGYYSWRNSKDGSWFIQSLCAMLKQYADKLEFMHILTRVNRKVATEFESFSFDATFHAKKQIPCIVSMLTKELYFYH
Protocol: (§1) Fluorescence enzyme assays detecting the activity of the compounds of Formula 1 utilizing the recombinant ICE and CPP32 enzymes are performed essentially according to Thornberry et al. (Nature, 356:768:774 (1992)) and Nicholson et al. (Nature, 376:37–43 (1995)) respectively, (herein incorporated by reference) in 96 well microtiter plates. The substrate is Acetyl-Tyr-Val-Ala-Asp-amino-4-methylcoumarin (AMC) for the ICE assay and Acetyl-Asp-Glu-Val-Asp-amino-4-methylcoumarin for the CPP32, Mch2, Mch3 and Mch5 assays. Enzyme reactions are run in ICE buffer (25 mM HEPES, 1 mM EDTA, 0.1% CHAPS, 10% sucrose, pH 7.5) containing 2 mM DTT at room temperature in duplicate.
(§2) The enzyme and the compound of Formula I to be assayed are allowed to preincubate in the microtitre plate wells for 30 minutes at room temperature prior to the addition of substrate to initiate the reaction. Fluorescent AMC product formation is monitored for one hour at room temperature by measuring the fluorescence emission at 460 nm using an excitation wavelength of 360 nm. The fluorescence change in duplicate (control) wells are averaged and the mean values are plotted as a function of inhibitor concentration to determine the inhibitor concentration producing 50% inhibition (IC50). The results of this assay are set forth below in Table 1 and in Table 3 (for Table 3, see Examples 11 through 52).
(§3) The reference compound for this assay was Cbz-ValAlaAsp-H and the values are denoted in Table 1 as “Reference”.

MCH-5 [2] = target: T2, MCH-5 (Homo sapiens, UniProt Q14790); test: Fluorescence enzyme assay, IC50 determination, Mch5
T2 sequence (Q14790 217-374 limits assumed, species assumed): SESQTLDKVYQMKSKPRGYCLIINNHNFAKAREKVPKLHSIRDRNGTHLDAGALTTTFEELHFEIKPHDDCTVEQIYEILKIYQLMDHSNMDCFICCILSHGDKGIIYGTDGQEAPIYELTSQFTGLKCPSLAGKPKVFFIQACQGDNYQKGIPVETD
T2 sequence (Q14790 385-479 limits assumed, species assumed): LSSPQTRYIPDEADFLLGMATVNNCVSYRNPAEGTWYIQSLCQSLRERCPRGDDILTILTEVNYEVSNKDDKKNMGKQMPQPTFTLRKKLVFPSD
Protocol: as §1, §2, §3

MCH-2 [3] = target: T3, MCH-2 (Homo sapiens, UniProt P55212); test: Fluorescence enzyme assay, IC50 determination, Mch2
T3 sequence (P55212 24-179 limits assumed): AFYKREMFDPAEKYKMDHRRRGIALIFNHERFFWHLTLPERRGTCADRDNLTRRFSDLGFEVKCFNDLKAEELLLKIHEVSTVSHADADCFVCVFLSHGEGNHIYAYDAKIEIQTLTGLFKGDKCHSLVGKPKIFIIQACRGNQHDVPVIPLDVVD
T3 sequence (P55212 194-293 limits assumed): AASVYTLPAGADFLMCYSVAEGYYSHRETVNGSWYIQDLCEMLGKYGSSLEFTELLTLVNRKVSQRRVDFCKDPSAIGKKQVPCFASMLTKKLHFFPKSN
Protocol: as §1, §2, §3

MCH-3 = target: T4, MCH-3 (Homo sapiens, UniProt P55210); test: Fluorescence enzyme assay, IC50 determination, Mch3
T4 sequence (P55210 24-198 limits assumed): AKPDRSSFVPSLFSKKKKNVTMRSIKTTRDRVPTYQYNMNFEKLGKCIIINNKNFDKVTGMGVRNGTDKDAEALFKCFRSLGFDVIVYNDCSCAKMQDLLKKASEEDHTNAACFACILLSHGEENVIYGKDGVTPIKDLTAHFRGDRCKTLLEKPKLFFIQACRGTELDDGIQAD
T4 sequence (P55210 207-303 limits assumed): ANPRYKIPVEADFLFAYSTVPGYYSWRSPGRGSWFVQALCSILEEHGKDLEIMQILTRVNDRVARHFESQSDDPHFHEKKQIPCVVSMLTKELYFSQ
Protocol: as §1, §2, §3

MCH-5 [4] = target: T2, MCH-5; test: Dissociation constant Ki and irreversible rate constant k3 for irreversible inhibitors, Mch5; details: continuous assay 60 min, reaction initiated by adding enzyme
CPP32 [5] = target: T1, CPP32; test: Dissociation constant Ki and irreversible rate constant k3 for irreversible inhibitors, CPP32; details: continuous assay 60 min, reaction initiated by adding enzyme
MCH-2 [6] = target: T3, MCH-2; test: Dissociation constant Ki and irreversible rate constant k3 for irreversible inhibitors, Mch2; details: continuous assay 60 min, reaction initiated by adding enzyme
mICE = target: T5, mICE (Mus musculus, UniProt P29452); test: Dissociation constant Ki and irreversible rate constant k3 for irreversible inhibitors, ICE; details: continuous assay 60 min, reaction initiated by adding enzyme
T5 sequence (P29452 123-296 limits assumed): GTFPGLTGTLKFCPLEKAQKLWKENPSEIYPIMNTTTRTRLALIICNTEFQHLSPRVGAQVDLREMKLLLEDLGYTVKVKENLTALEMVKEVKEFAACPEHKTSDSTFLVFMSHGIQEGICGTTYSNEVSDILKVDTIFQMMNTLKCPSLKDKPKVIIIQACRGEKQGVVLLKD
T5 sequence (P29452 315-402 limits assumed): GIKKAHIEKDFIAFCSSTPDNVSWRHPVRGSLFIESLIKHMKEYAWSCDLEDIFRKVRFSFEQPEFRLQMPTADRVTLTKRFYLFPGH

[7] = recombinant enzyme, Ac-DEVD-AMC substrate, 30 min preincubation, room temperature, read-out: CPP32 IC50
[8] = Ac-DEVD-AMC substrate, 30 min preincubation, room temperature, read-out: MCH-5 IC50
[9] = Ac-DEVD-AMC substrate, 30 min preincubation, room temperature, read-out: MCH-2 IC50
[10] = Ac-DEVD-AMC substrate, 30 min preincubation, room temperature, read-out: MCH-3 IC50
[11] = Table 3, method of Preparation 3A, read-out: CPP32 I50
[12] = Table 3, method of Preparation 3A, read-out: MCH5 I50
[13] = Table 3, method of Preparation 3A, read-out: MCH2 I50
[14] = Table 3, method of Preparation 3A, read-out: MCH3 I50

Row | IC50 (CPP32 [1]; [7]) [nM] | IC50 (MCH-5 [2]; [8]) [nM] | IC50 (MCH-2 [3]; [9]) [nM] | IC50 (MCH-3; [10]) [nM] | IC50 (CPP32 [1]; [11]) [nM] | IC50 (MCH-5 [2]; [12]) [nM] | IC50 (MCH-2 [3]; [13]) [nM] | IC50 (MCH-3; [14]) [nM] | Ki (MCH-5 [4]) [nM] | MCH-5 k3/Ki (MCH-5 [4]) | CPP32 k3/Ki (CPP32 [5]) | Ki (CPP32 [5]) [nM] | Ki (MCH-2 [6]) [nM] | MCH-2 k3/Ki (MCH-2 [6]) | Ki (mICE) [nM] | mICE k3/Ki (mICE) | Structure (SMILES)
1 | 512 | 17 | 310 | 7240 |  |  |  |  |  |  |  |  |  |  |  |  | CC(C)C[C@H](NC(=O)C(C)Nc1cccc2ccccc12)C(=O)N[C@H](C=O)CC(=O)O (mixture of isomers) [Example 9, (3S,2′RS)-3-[N-(2′-(1-Naphthylamino)Propionyl)Leucinyl]Amino-4-Oxobutanoic Acid]
2 | 21 | 12 | 15 | 587 |  |  |  |  |  |  |  |  |  |  |  |  | CC(C)C[C@H](NC(=O)[C@H](CCC(=O)O)Oc1cccc2ccccc12)C(=O)N[C@H](C=O)CC(=O)O [Example 3, (3S,2′S)-3-[N-((2′-(1-Naphthyloxy)-4′-Carboxy)Butyryl)Leucinyl]Amino-4-Oxobutanoic Acid]
3 | 3.8 | 31 | 3.5 | 130 |  |  |  |  |  |  |  |  |  |  |  |  | CC(C)C[C@H](NC(=O)[C@@H](CCC(=O)O)Oc1cccc2ccccc12)C(=O)N[C@H](C=O)CC(=O)O [Example 4, (3S,2′R)-3-[N-((2′-(1-Naphthyloxy)-4′-Carboxy)Butyryl)Leucinyl]Amino-4-Oxobutanoic Acid]
4 |  |  |  |  | 376 | 2430 | 1280 | 1320 |  |  |  |  |  |  |  |  | CC(C)C[C@H](NC(=O)C(C)Oc1cccc2ccccc12)C(=O)N[C@H](C=O)CC(=O)O (stereo partly shown) [Example 14]
5 |  |  |  |  | 4810 | 29100 | 13800 | 32400 |  |  |  |  |  |  |  |  | CC(C)C[C@H](NC(=O)C(C)Oc1cccc2cc(Br)ccc12)C(=O)N[C@H](C=O)CC(=O)O (stereo partly shown) [Example 15]
6 |  |  |  |  | 59 | 9810 | 305 | 1370 |  |  |  |  |  |  |  |  | CC(C)C[C@H](NC(=O)CCOc1cccc2ccccc12)C(=O)N[C@H](C=O)CC(=O)O [Example 22]
7 |  |  |  |  |  |  |  |  | 351 | 3,680 M^−1s^−1 | 33,000 M^−1s^−1 | 132 | 93 | 36,600 M^−1s^−1 | 1180 | 11,400 M^−1s^−1 | CC(C)[C@H](NC(=O)CCOc1ccccc1)C(=O)N[C@@H](CC(=O)O)C(=O)COc1c(F)c(F)cc(F)c1F [Example 160, (3S)-3-[N-(3′-(Phenoxy)Propionyl)Valinyl]Amino-5-(2,3,5,6-Tetrafluorophenoxy)-4-Oxopentanoic Acid]
8 |  |  |  |  |  |  |  |  | 105 | 15,200 M^−1s^−1 | 319,000 M^−1s^−1 | 19 | 30 | 149,000 M^−1s^−1 | 98 | 86,400 M^−1s^−1 | CC(C)C[C@H](NC(=O)COc1ccccc1-c1ccccc1)C(=O)N[C@@H](CC(=O)O)C(=O)COP(=O)(c1ccccc1)c1ccccc1 [Example 161]
9 |  |  |  |  |  |  |  |  | 128 | 5,290 M^−1s^−1 | 246,000 M^−1s^−1 | 44 | 29 | 104,000 M^−1s^−1 | 319 | 22,200 M^−1s^−1 | CC(C)C[C@H](NC(=O)COc1ccccc1-c1ccccc1)C(=O)N[C@@H](CC(=O)O)C(=O)COC(=O)c1c(Cl)cccc1Cl [Example 162]
10 |  |  |  |  |  |  |  |  | 252 | 7,960 M^−1s^−1 | 308,000 M^−1s^−1 | 23 | 12 | 110,000 M^−1s^−1 | 415 | 37,800 M^−1s^−1 | CC(C)C[C@H](NC(=O)COc1ccccc1-c1ccccc1)C(=O)N[C@@H](CC(=O)O)C(=O)COc1c(F)cc(F)cc1F [Example 163]
11 |  |  |  |  |  |  |  |  | 223 | 6,190 M^−1s^−1 | 137,000 M^−1s^−1 | 63 | 23 | 91,700 M^−1s^−1 | 467 | 24,000 M^−1s^−1 | CC(C)C[C@H](NC(=O)COc1ccccc1-c1ccccc1)C(=O)N[C@@H](CC(=O)O)C(=O)COc1c(F)c(F)cc(F)c1F [Example 164]
12 |  |  |  |  |  |  |  |  | 89 | 13,100 M^−1s^−1 | 335,000 M^−1s^−1 | 20 | 8 | 116,000 M^−1s^−1 | 396 | 25,500 M^−1s^−1 | CC(C)C[C@H](NC(=O)COc1c(C(=O)O)ccc2ccccc12)C(=O)N[C@@H](CC(=O)O)C(=O)COC(=O)c1c(Cl)cccc1Cl [Example 165, (3S)-3-[N-((2′-Carboxy-1′-Naphthyloxy)Acetyl)Leucinyl]-Amino-5-(2′,6′-Dichlorobenzoyloxy)-4-Oxopentanoic Acid]
13 |  |  |  |  |  |  |  |  | 28 | 80,000 M^−1s^−1 | 317,000 M^−1s^−1 | 28 | 11 | 146,000 M^−1s^−1 | 42 | 149,000 M^−1s^−1 | CC(C)C[C@H](NC(=O)COc1c(C(=O)O)ccc2ccccc12)C(=O)N[C@@H](CC(=O)O)C(=O)COP(=O)(c1ccccc1)c1ccccc1 [Example 166]
14 |  |  |  |  |  |  |  |  | 126 | 13,600 M^−1s^−1 | 56,200 M^−1s^−1 | 89 | 42 | 52,500 M^−1s^−1 | 501 | 21,300 M^−1s^−1 | CC(C)C[C@H](NC(=O)COc1c(C(=O)O)ccc2ccccc12)C(=O)N[C@@H](CC(=O)O)C(=O)COc1c(F)c(F)cc(F)c1F [Example 167]
15 |  |  |  |  |  |  |  |  | 1160 | 684 M⁻¹ s⁻¹ | 4,330 M^−1s^−1 | 3080 | 1260 | 1,330 M^−1s^−1 | 480 | 11,100 M^−1s^−1 | C[C@H](NC(=O)COc1ccc2ccccc2c1)C(=O)NC(CC(=O)O)C(=O)COc1c(F)c(F)cc(F)c1F (stereo partly shown) [Example 176]
16 |  |  |  |  |  |  |  |  | 439 | 4,370 M^−1s^−1 | 89,700 M^−1s^−1 | 86 | 47 | 21,100 M^−1s^−1 | 225 | 45,600 M^−1s^−1 | C[C@H](NC(=O)COc1ccccc1-c1ccccc1)C(=O)NC(CC(=O)O)C(=O)COc1c(F)c(F)cc(F)c1F (stereo partly shown) [Example 177]
17 |  |  |  |  |  |  |  |  | 18 | 83,300 M^−1s^−1 | 12,200 M^−1s^−1 | 820 | 594 | 2,950 M^−1s^−1 | 15 | 214,000 M^−1s^−1 | CC(NC(=O)C(NC(=O)OCc1ccccc1)C(C)C)C(=O)NC(CC(=O)O)C(=O)CF (stereo not drawn) [refer., Cbz-ValAlaAsp-CH2F, reference compound] (Cbz-Val-Ala-Asp-CH2F; configuration not given here)
